Like-named read-outs stand apart in the source and are kept apart here.
Assays:
[1] = molecular target: T1, ρ1 GABAC T244A mutant receptors (Homo sapiens, UniProt P24046, T265A); assay: Two-electrode voltage-clamp electrophysiology, Xenopus oocytes expressing ρ1 T244A mutant receptors; format: cell-based
T1 construct: expressed in transfected cells; host or cells: Xenopus laevis oocytes injected with cRNA (raised to 300 ng/μl)
Method: (§1) Pairs of the complementary mutagenic oligonucleotide primers were first designed to introduce single point mutations at human ρ1 GABAC subunit using UniProt. Primers were made by life technologies (Life Technologies^TM Australia Pty Ltd).
(§2) Site-directed mutagenesis was performed using QuikChange II site-directed mutagenesis kit as described by the manufacturer (Stratagene).
(§3) ρ1 GABAC WT and mutant plasmids DNA were linearized by incubation with Xba1. ρ1 WT and mutant cRNA were synthesized using the T7 Transcription mMESSAGE mMACHINE Kit (Ambion, Austin, TX, USA) following the procedure described by the manufacture. The quantity and quality of synthesized CRNA was determined by absorbance at 260–280 nm using Nanodrop Spectrophotometer (Thermo Scientific, Wilmington, DE, USA). The purity of synthesized cRNA was confirmed by agarose gel electrophoresis (0.9%) using the GelDoc 1000 (Bio-Rad Laboratories, Hercules, CA USA).
(§4) A microprocessor-controlled micropipette puller (PUL-100, World Precision Instruments, Inc. FL, USA) was used to make micropipettes then RNA pulled up into the micropipette by a positive-displacement using micro-injector (Nanoliter micro-injector, World Precision Instruments, Inc. FL, USA). Oocytes were sorted and healthy ones were injected with 35–50 ng of ρ cRNA unless otherwise mentioned.
(§5) The injected oocytes were incubated for between two and four days after injection with desired RNA. Two-electrode voltage clamp instrument; Geneclamp 500 amplifier (Axon Instrument, Sydney, NSW, Australia) and Chart version 5.5.6 was used to measure the various activities at the receptors expressed by these oocytes. The recording microelectrodes were prepared by pulling using PUL-100 micropipette puller (World precision Instruments, Inc. FL, USA) and filled with 3 M KCl.
(§6) Dose response curves were generated using GraphPad PRISM 5.02 (GraphPad Software San Diego, CA).

[2] = molecular target: T2, human ρ1 GABAC WT receptors (Homo sapiens, UniProt P24046); assay: Two-electrode voltage-clamp electrophysiology, Xenopus oocytes expressing ρ1 GABAC WT receptors; format: cell-based; conditions: for Emax: read-out: efficacy relative to the GABA maximal response, ligand applied alone; for additive effect on GABA EC50 response (GABA EC50 response set to 100%): co-applied with GABA EC50
T2 construct: expressed in transfected cells; host or cells: Xenopus laevis oocytes injected with cRNA
Method: Human ρ1 cDNA subcloned into pcDNA1.1 (Invitrogen, San Diego, CA, USA) was kindly provided by Dr. George Uh1 (National Institute for Drug Abuse, Baltimore, MD, USA).
as §3, §4, §5, §6
(§7) The inhibitory concentration curves were generated using GraphPad PRISM 5.02 and IC50 values were calculated using Eq 2.

[3] = molecular target: T3, ρ1 GABAC T244S mutant receptors (Homo sapiens, UniProt P24046, T265S); assay: Two-electrode voltage-clamp electrophysiology, Xenopus oocytes expressing ρ1 T244S mutant receptors; format: cell-based; conditions: for effect of T244S mutation on antagonist potency: ρ1 T244S compared to WT
T3 construct: expressed in transfected cells; host or cells: Xenopus laevis oocytes injected with cRNA
Method: as §1, §2, §3, §4, §5, §6, §7

[4] = molecular target: T4, ρ1 GABAC T244C mutant receptors (Homo sapiens, UniProt P24046, T265C); assay: Two-electrode voltage-clamp electrophysiology, Xenopus oocytes expressing ρ1 T244C mutant receptors; format: cell-based
T4 construct: expressed in transfected cells; host or cells: Xenopus laevis oocytes injected with cRNA (raised to 300 ng/μl)
Method: as §1, §2, §3, §4, §5
Current responses were normalized to the maximum GABA-activated current (or other ligand which is stated as required) and expressed as a percentage, which was fitted by least squares to Hill equation (Eq 1). Dose response curves were generated using GraphPad PRISM 5.02 (GraphPad Software San Diego, CA).
GABA was first tested on all mutant receptors in order to determine the functionality of these receptors.

[5] = molecular target: T3, ρ1 GABAC T244S mutant receptors; conditions: agonist effects eliminated; cited from earlier work
[6] = molecular target: T2, human ρ1 GABAC WT receptors; design: method as in PMID 8386310; conditions: agonist applied alone; cited from earlier work
[7] = read-out: efficacy relative to the GABA maximal response, ρ1 T244S, ligand applied alone
[8] = high GABA concentrations, 300 ng/μl RNA

T3 sequence (P24046 22-479 T265S): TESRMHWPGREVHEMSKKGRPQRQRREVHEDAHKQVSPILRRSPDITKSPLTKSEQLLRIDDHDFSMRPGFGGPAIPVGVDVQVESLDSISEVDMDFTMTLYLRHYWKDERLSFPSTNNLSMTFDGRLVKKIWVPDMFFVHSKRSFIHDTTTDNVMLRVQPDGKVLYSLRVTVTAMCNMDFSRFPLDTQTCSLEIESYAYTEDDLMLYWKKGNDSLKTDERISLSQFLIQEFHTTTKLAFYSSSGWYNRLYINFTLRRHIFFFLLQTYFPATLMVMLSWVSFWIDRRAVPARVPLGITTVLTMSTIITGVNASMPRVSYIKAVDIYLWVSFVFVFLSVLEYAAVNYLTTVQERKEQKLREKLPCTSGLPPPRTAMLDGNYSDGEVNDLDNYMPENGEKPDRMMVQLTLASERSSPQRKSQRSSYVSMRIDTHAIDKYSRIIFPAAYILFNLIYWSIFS
T4 sequence (P24046 22-479 T265C): as the sequence (P24046 22-479 T265S) above, with S244C counted along it
T2 sequence (P24046 22-479): as the sequence (P24046 22-479 T265S) above, with S244T counted along it
T1 sequence (P24046 22-479 T265A): as the sequence (P24046 22-479 T265S) above, with S244A counted along it

Q: Which results are given for `NCCCCC(=O)O` [5-aminovaleric acid]?
A: efficacy compared with GABA [1]: less efficacious than GABA; IC50 [2]: 37 µM; agonist character ([2]; ρ1 WT, applied alone): weak partial agonists; IC50 [3]: 17 µM

Q: Which results are given for `NC/C=C\C(=O)O` [CACA]?
A: EC50 ([2]; agonist applied alone, ρ1 WT): 95 µM; Emax ([2]; ρ1 WT): 60%; additive effect, % of GABA EC50 efficacy ([2]; ρ1 WT, co-applied with GABA EC50, at 100 μM ligand): 150%; Emax [3, 7]: 2%; magnitude of response, % of GABA IMAX ([3]; ρ1 T244S, 300 μM applied alone): less than 2%; agonist activity ([3]; ρ1 T244S, applied alone, minimal response at 300 μM): almost inactive; enhancement of the GABA EC50 effect ([3]; ρ1 T244S, co-applied with GABA EC50, at 100 μM ligand): ~20%

Q: What does the source list for `NCCCC(=O)O` [GABA, γ-aminobutyric acid]?
A: response ([4]; 30 mM, five times the RNA normally injected): very weak response; sensitivity of receptors to GABA ([4]; GABA 30mM, 50–100 ng/μl RNA): non-functional or insensitive; sensitivity of receptors to GABA [4, 8]: weakly responsive; effect on β-alanine response ([1]; 30 mM co-applied with 30 mM β-alanine): moderately inhibits; sensitivity of receptors to GABA ([1]; GABA 30mM, 50–100 ng/μl RNA): non-functional or insensitive; sensitivity of receptors to GABA [1, 8]: weakly responsive

Q: What does the source list for `CS(=O)(=O)SCCN` [MTSEA, 2-aminoethylmethane thiosulfonate]?
A: potency and efficacy compared with GABA ([4]; reversible responses): greater potency and efficacy than GABA; activation ([2]; ρ1 WT, applied alone): very weak efficacy and potency; effect on GABA EC50 response ([2]; ρ1 WT, co-applied with GABA EC50, concentrations below 100 μM): weak additive effects; effect on GABA EC50 response ([2]; ρ1 WT, co-applied with GABA EC50, concentrations of 100 μM and above): weakly antagonizes

Q: Which “efficacy compared with GABA” value [1] does the source give for `NC/C=C/C(=O)O` [TACA, trans-aminocrotonic acid] here?
A: less efficacious than GABA

Q: What about the Emax ([2]; ρ1 WT) of the same molecule?
A: 95%

Q: And the EC50 ([3]; agonist applied alone, ρ1 T244S)?
A: 14 µM

Q: What about the Emax [3, 7] of the same molecule?
A: 110%

Q: What about the “fold decrease in potency/activity” value ([3]; ρ1 T244S compared to ρ1 WT) of the same molecule?
A: 25 fold

Q: For `Oc1noc2c1CCNC2` [THIP, 4,5,6,7-tetrahydroisoxazolo[5,4-c]pyridin-3-ol], which “effect of T244S mutation on antagonist potency” value [3] is on record?
A: no effect

Q: Which “effect when applied alone” value [1] does the source give for `CP(=O)(O)C1=CCNCC1` [TPMPA] here?
A: no effect

Q: And the “effect on β-alanine response” value ([1]; 1 mM against β-alanine response (30 mM))?
A: weakly antagonizes

Q: And the IC50 ([2]; ρ1 WT)?
A: 2.3 µM

Q: And the “effect of T244S mutation on antagonist potency” value [3]?
A: no effect

Q: For `NCC(=O)O` [glycine], which “efficacy compared with GABA” value [1] is on record?
A: less efficacious than GABA

Q: And the agonist character ([2]; ρ1 WT, applied alone)?
A: weak partial agonists

Q: And the “direct activation of receptors” value ([2]; ρ1 WT, at mM concentrations, applied alone)?
A: 25%

Q: And the “additive effect on GABA EC50 response (GABA EC50 response set to 100%)” value ([2]; ρ1 WT)?
A: 180%

Q: And the “direct activation of receptors” value ([3]; ρ1 T244S, at mM concentrations, applied alone)?
A: 2%

Q: What about the “additive effect on GABA EC50 response (GABA EC50 response set to 100%)” value ([3]; ρ1 T244S, co-applied with GABA EC50) of the same molecule?
A: 145%

Q: What about the “maximum efficacy relative to the GABA maximal response at 30 mM” value ([3]; ρ1 T244S, ligand applied alone) of the same molecule?
A: 8%

Q: Which “mode of action at mutant receptors” value [5] does the source give for `O=C(O)Cc1c[nH]cn1` [imidazole-4-acetic acid] here?
A: acted only as competitive antagonists

Q: Which EC50 [6] does the source give for `O=C(O)C1=CCNCC1` [isoguvacine] here?
A: 200 µM

Q: And the Emax ([2]; ρ1 WT)?
A: 45%

Q: And the “additive effect on GABA EC50 response (GABA EC50 response set to 100%)” value ([2]; ρ1 WT)?
A: 135%

Q: What about the IC50 [3] of the same molecule?
A: 25.3 µM

Q: Which “efficacy compared with GABA” value [1] does the source give for `NCc1cc(=O)[nH]o1` [muscimol] here?
A: less efficacious than GABA

Q: And the “mode of action at mutant receptors” value [5]?
A: acted only as competitive antagonists

Q: With `NCCC(=O)O` [β-alanine] as the molecule, how does the EC50 ([1]; 300 ng/μl mutant RNA injected) read?
A: 1500 µM

Q: And the “efficacy compared with GABA” value ([1]; 30 mM concentration)?
A: approximately two times more efficacious than GABA

Q: What about the IC50 [2] of the same molecule?
A: 120 µM

Q: What about the “weak additive effect on GABA EC50 response” value ([2]; xenopus oocytes) of the same molecule?
A: 125%

Q: And the agonist character ([2]; ρ1 WT, applied alone)?
A: weak partial agonists

Q: And the “inhibition of GABA EC50” value ([2]; ρ1 WT, concentrations greater than 100 μM)?
A: 60%

Q: What about the IC50 [3] of the same molecule?
A: 1000 µM

Q: And the Emax ([3]; read-out: maximum efficacy relative to the GABA maximal response at 30 mM, ρ1 T244S, ligand applied alone)?
A: 5%

Q: What about the “weak additive effect on GABA EC50 response” value ([3]; xenopus oocytes) of the same molecule?
A: 115%

Q: What about the “fold increase of IC50” value ([3]; ρ1 T244S compared to ρ1 WT, against GABA EC50) of the same molecule?
A: 8 fold

Q: And the “inhibition of GABA EC50” value ([3]; ρ1 T244S, concentrations greater than 100 μM)?
A: 60%

From PMC4887073, “Investigating the Role of Loop C Hydrophilic Residue ‘T244’ in the Binding Site of ρ1 GABAC Receptors via Site Mutation and Partial Agonism” (PLoS ONE, 2016)
